Experimental data published in patent publication US10570152B2, “Antibacterial therapeutics and prophylactics” (VYOME BIOSCIENCES PVT. LTD., priority 2015, dated 2020).
Values after ≈ are worked out from the molar mass of the structure shown.

Experiments:
Assay in all cases: MIC by micro broth dilution
Assay type in all cases: cell-based
S. aureus CCARM 3505 = conditions: for MIC: Staphylococcus aureus, CCARM3505, read-out: Minimum inhibitory concentration (MIC)
Protocol: (§1) MIC of DART molecules were determined by micro broth dilution as per CLSI guidelines. Bacterial strains were cultured in Brain Heart Infusion Agar (BHIA) at 37° C. for 24 h. For MIC determination, BHI broth (100 μl) was added to each of the wells of a 96 well plate. 100 μl of broth containing drug was added to the first well (1A to 1H) and thereafter serial (double) dilutions were carried out for up to 10 wells (column 1 to column 10 of the 96 well plate). Bacterial inoculum was prepared by adjusting the bacterial culture turbidity to 0.5 McFarland standard (approximately 1.5×10^8 cells/ml) and further diluted (100 times with sterile BHI broth). Diluted bacterial suspension (100 μl) was added to each well except sterility control wells (column 12 of 96 well plate). The plates were incubated at 37° C. for 24 h. The MIC of the test compound was measured after addition of Alamar blue dye.

S. epidermidis S12-1 = conditions: for MIC: Staphylococcus epidermidis, S121, read-out: Minimum inhibitory concentration (MIC)
Protocol: as §1

[1] = test system: S. epidermidis ATCC 35984; conditions: for MIC: Staphylococcus epidermidis, ATCC35984, read-out: Minimum inhibitory concentration (MIC)
Protocol: as §1

S. aureus ATCC 43300 = conditions: S. aureus ATCC 43300; for MIC: Staphylococcus aureus, ATCC43300, read-out: Minimum inhibitory concentration (MIC)
Protocol: as §1

E. faecium NCIM 5421 = conditions: for MIC: Enterococcus faecium, NCIM5421, read-out: Minimum inhibitory concentration (MIC)
Protocol: as §1

S. aureus MTCC 6908 = conditions: for MIC: Staphylococcus aureus, MTCC6908, read-out: Minimum inhibitory concentration (MIC)
Protocol: as §1

E. coli MTCC 1687 = conditions: Escherichia coli, MTCC1687, read-out: Minimum inhibitory concentration (MIC)
Protocol: as §1

E. coli BAA 196 = conditions: Escherichia coli, BAA196, read-out: Minimum inhibitory concentration (MIC)
Protocol: as §1

SMILES	MIC (S. aureus CCARM 3505)	MIC (S. epidermidis S12-1)	MIC [1]	MIC (S. aureus ATCC 43300)	MIC (E. faecium NCIM 5421)	MIC (S. aureus MTCC 6908)	MIC (E. coli MTCC 1687)	Minimum inhibitory concentration (MIC) (S. aureus CCARM 3505)	Minimum inhibitory concentration (MIC) (S. epidermidis S12-1)	Minimum inhibitory concentration (MIC) [1]	Minimum inhibitory concentration (MIC) (S. aureus ATCC 43300)	Minimum inhibitory concentration (MIC) (E. faecium NCIM 5421)	Minimum inhibitory concentration (MIC) (S. aureus MTCC 6908)	MIC (E. coli BAA 196)
CC(=O)NC[C@H]1CN(c2ccc(N3CCN(C(=O)NC(=N)N)CC3)c(F)c2)C(=O)O1 [Compound 84, (S)-4-(4-(5-(Acetamidomethyl)-2-oxooxazolidin-3-yl)-2-fluorophenyl)-N-carbamimidoylpiperazine-1-carboxamide]	> 16 µg/mL	8 µg/mL (≈ 19 µM)	16 µg/mL (≈ 38 µM)	> 16 µg/mL	> 16 µg/mL	> 16 µg/mL								
CC1Sc2c(C(=O)O)c(=O)c3cc(F)c(N4CCN(CC(=O)NC(=O)Nc5ccccc5)CC4)cc3n21 (centres unmarked) [Compound 112, 6-Fluoro-1-methyl-4-oxo-7-(4-(2-oxo-2-(3-phenylureido)ethyl)piperazin-1-yl)-1H,4H-[1,3]thiazeto-[3,2-a]quinoline-3-carboxylic acid]	> 16 µg/mL	8 µg/mL (≈ 15.2 µM)	0.13 µg/mL (≈ 0.247 µM)	0.13 µg/mL (≈ 0.247 µM)	> 16 µg/mL	0.25 µg/mL (≈ 0.476 µM)	1 µg/mL (≈ 1.9 µM)							
CCCCCCCCCCC[CH2][SnH2][CH2][C@@H](NC(C)=O)C(=O)N1CCN(c2ccc(N3CC(CNC(C)=O)OC3=O)cc2F)CC1 (stereo partly drawn) [Compound 108, (S)—N-[2-(4-{4-[5-(Acetylamino-methyl)-2-oxo-oxazolidin-3-yl]-2-fluoro-phenyl}-piperazin-1-yl)-1-dodecylstannanylmethyl-2-oxo-ethyl]-acetamide]								>16 µg/mL	>16 µg/mL	>16 µg/mL	>16 µg/mL	>16 µg/mL	>16 µg/mL	
CC(=O)NC[C@H]1CN(c2ccc(N3CCN(C(=O)c4csc(NC(=N)N)n4)CC3)c(F)c2)C(=O)O1 [Compound 58, (S)—N-((3-(3-fluoro-4-(4-(2-guanidinothiazole-4-carbonyl)piperazin-1-yl)phenyl)-2-oxooxazolidin-5-yl)methyl)acetamide]	> 16 µg/mL	> 16 µg/mL	> 16 µg/mL	> 16 µg/mL	> 16 µg/mL	> 16 µg/mL								
CC1Sc2c(C(=O)O)c(=O)c3cc(F)c(N4CCN(C(=O)c5cccc[n+]5[O-])CC4)cc3n21 (centres unmarked) [Compound 34, 2-(4-(3-Carboxy-6-fluoro-1-methyl-4-oxo-1H,4H-[1,3]thiazeto[3,2-a]quinolin-7-yl)piperazine-1-carbonyl)pyridine-1-oxide]	8 µg/mL (≈ 17 µM)	8 µg/mL (≈ 17 µM)	0.13 µg/mL (≈ 0.276 µM)	0.13 µg/mL (≈ 0.276 µM)	1 µg/mL (≈ 2.13 µM)	4 µg/mL (≈ 8.5 µM)	> 16 µg/mL							> 16 µg/mL
CC(=O)NC[C@H]1CN(c2ccc(N3CCN(C(=O)c4c[nH]c5ccc([N+](=O)[O-])cc45)CC3)c(F)c2)C(=O)O1 [Compound 75, (S)—N-((3-(3-fluoro-4-(4-(5-nitro-1H-indole-3-carbonyl)piperazin-1-yl)phenyl)-2-oxooxazolidin-5-yl)methyl)acetamide]	> 16 µg/mL	> 16 µg/mL	> 16 µg/mL	16 µg/mL (≈ 30.5 µM)	> 16 µg/mL	4 µg/mL (≈ 7.63 µM)								
CC(=O)NC[C@H]1CN(c2ccc(N3CCN(C(=O)c4coc(N)n4)CC3)c(F)c2)C(=O)O1 [Compound 110, (S)—N-(3-{4-[4-(2-amino-oxazole-4-carbonyl)-piperazin-1-yl]-3-fluoro-phenyl}-2-oxo-oxazolidin-5-ylmethyl)-acetamide]	> 16 µg/mL	> 16 µg/mL	> 16 µg/mL	> 16 µg/mL	> 16 µg/mL	> 16 µg/mL								
CC(=O)NC[C@H]1CN(c2ccc(N3CCN(C(=O)c4csc(N)n4)CC3)c(F)c2)C(=O)O1 [Compound 57, (S)—N-((3-(4-(4-(2-aminothiazole-4-carbonyl)piperazin-1-yl)-3-fluorophenyl)-2-oxooxazolidin-5-yl)methyl)acetamide]	> 16 µg/mL	> 16 µg/mL	> 16 µg/mL	16 µg/mL (≈ 34.6 µM)	> 16 µg/mL	8 µg/mL (≈ 17.3 µM)								
CC(=O)NC[C@H]1CN(c2ccc(N3CCN(C(=O)c4ccccn4)CC3)c(F)c2)C(=O)O1 [Compound 77, (S)—N-((3-(3-fluoro-4-(4-picolinoylpiperazin-1-yl)phenyl)-2-oxooxazolidin-5-yl)methyl)acetamide]	8 µg/mL (≈ 18.1 µM)	4 µg/mL (≈ 9.06 µM)	4 µg/mL (≈ 9.06 µM)	8 µg/mL (≈ 18.1 µM)	0.5 µg/mL (≈ 1.13 µM)	4 µg/mL (≈ 9.06 µM)								
CC1Sc2c(C(=O)O)c(=O)c3cc(F)c(N4CCN(C(=O)CNC(=O)c5cccc[n+]5[O-])CC4)cc3n21 (centres unmarked) [Compound 111, 2-((2-(4-(3-carboxy-6-fluoro-1-methyl-4-oxo-1H,4H-[1,3]thiazeto[3,2-a]quinolin-7-yl)piperazin-1-yl)-2-oxoethyl)carbamoyl)pyridine 1-oxide]	> 16 µg/mL	> 16 µg/mL	> 16 µg/mL	16 µg/mL (≈ 30.3 µM)	> 16 µg/mL	> 16 µg/mL								
CC(=O)NC[C@H]1CN(c2ccc(N3CCN(C(=O)c4cccc(Br)n4)CC3)c(F)c2)C(=O)O1 [Compound 76, (S)—N-((3-(4-(4-(6-Bromopicolinoyl)piperazin-1-yl)-3-fluorophenyl)-2-oxooxazolidin-5-yl)methyl)acetamide]	8 µg/mL (≈ 15.4 µM)	4 µg/mL (≈ 7.69 µM)	2 µg/mL (≈ 3.84 µM)	8 µg/mL (≈ 15.4 µM)	> 16 µg/mL	4 µg/mL (≈ 7.69 µM)								
CC1Sc2c(C(=O)O)c(=O)c3cc(F)c(N4CCN(C(=O)CNC(=N)N)CC4)cc3n21 (centres unmarked) [Compound 43, 7-(4-(Carbamimidoylglycyl)piperazin-1-yl)-6-fluoro-1-methyl-4-oxo-1H,4H-[1,3]thiazeto[3,2-a]quinoline-3-carboxylic acid]	> 16 µg/mL	> 16 µg/mL	> 16 µg/mL	8 µg/mL (≈ 17.8 µM)	> 16 µg/mL	8 µg/mL (≈ 17.8 µM)	0.25 µg/mL (≈ 0.557 µM)							> 16 µg/mL
CC(=O)NC[C@H]1CN(c2ccc(N3CCN(Cc4nc5cc(Cl)c(Cl)cc5[nH]4)CC3)c(F)c2)C(=O)O1 [Compound 66, (S)—N-((3-(4-(4-((5,6-Dichloro-1H-benzo[d]imidazol-2-yl)methyl)piperazin-1-yl)-3-fluorophenyl)-2-oxooxazolidin-5-yl)methyl)acetamide]	> 16 µg/mL	> 16 µg/mL	8 µg/mL (≈ 14.9 µM)		> 16 µg/mL	8 µg/mL (≈ 14.9 µM)					8/16			
CC(=O)NC[C@H]1CN(c2ccc(N3CCN(Cc4nc5ccc([N+](=O)[O-])cc5[nH]4)CC3)c(F)c2)C(=O)O1 [Compound 65, (S)—N-((3-(3-Fluoro-4-(4-((6-nitro-1H-benzo[d]imidazol-2-yl)methyl)piperazin-1-yl)phenyl)-2-oxooxazolidin-5-yl)methyl)acetamide]	> 16 µg/mL	> 16 µg/mL	16 µg/mL (≈ 31.3 µM)	> 16 µg/mL	> 16 µg/mL	16 µg/mL (≈ 31.3 µM)								
CC(=O)NC[C@H]1CN(c2ccc(N3CCN(C(=O)CNC(=O)c4cccc[n+]4[O-])CC3)c(F)c2)C(=O)N1 [Compound 80, (S)-2-((2-(4-(4-(4-(Acetamidomethyl)-2-oxoimidazolidin-1-yl)-2-fluorophenyl)piperazin-1-yl)-2-oxoethyl)carbamoyl)pyridine 1-oxide]	> 16 µg/mL	> 16 µg/mL	> 16 µg/mL	16 µg/mL (≈ 31.2 µM)	> 16 µg/mL	16 µg/mL (≈ 31.2 µM)								
CC(=O)NC[C@H]1CN(c2ccc(N3CCN(C(=O)c4cccc[n+]4[O-])CC3)c(F)c2)C(=O)O1 [Compound 78, (S)-2-(4-(4-(5-(acetamidomethyl)-2-oxooxazolidin-3-yl)-2-fluorophenyl)piperazine-1-carbonyl)-pyridine 1-oxide]	> 16 µg/mL	8 µg/mL (≈ 17.5 µM)	8 µg/mL (≈ 17.5 µM)	16 µg/mL (≈ 35 µM)	> 16 µg/mL	8 µg/mL (≈ 17.5 µM)								
CC(=O)NC[C@H]1CN(c2ccc(N3CCN(CC(=O)Nc4ccc5nc(N)[nH]c5c4)CC3)c(F)c2)C(=O)O1 [Compound 68, (S)-2-(4-(4-(5-(acetamidomethyl)-2-oxooxazolidin-3-yl)-2-fluorophenyl)piperazin-1-yl)-N-(2-amino-1H-benzo[d]imidazol-6-yl)acetamide]	> 16 µg/mL	> 16 µg/mL	> 16 µg/mL	> 64 µg/mL	> 16 µg/mL	16 µg/mL (≈ 30.5 µM)								
CCNC(=O)N1CCN(c2cc3c(cc2F)c(=O)c(C(=O)O)c2n3C(C)S2)CC1 (centres unmarked) [Compound 48, 7-(4-(Ethylcarbamoyl)piperazin-1-yl)-6-fluoro-1-methyl-4-oxo-1H,4H-[1,3]thiazeto[3,2-a]quinoline-3-carboxylic acid]	> 16 µg/mL	> 16 µg/mL	0.5 µg/mL (≈ 1.19 µM)	1 µg/mL (≈ 2.38 µM)	> 16 µg/mL	2 µg/mL (≈ 4.76 µM)								
